According to patent publication US12276654B2, “Chemical probe-dependent evaluation of protein activity and uses thereof” (The University of Chicago, priority 2017, dated 2025):

What was measured:
FAAH = target: T1, FAAH (Mus musculus, UniProt O08914); experiment: sADPL in vivo target engagement in mPBMCs after oral gavage, off-target FAAH; settings: mice, 3 and 80 mg/kg
T1 construct: Then the mPBMCs were acquired from the mouse blood and subjected to family wide probe treatment; from tissue; host or cells: mouse blood PBMCs (mPBMCs)
T1 sequence (O08914 1-579): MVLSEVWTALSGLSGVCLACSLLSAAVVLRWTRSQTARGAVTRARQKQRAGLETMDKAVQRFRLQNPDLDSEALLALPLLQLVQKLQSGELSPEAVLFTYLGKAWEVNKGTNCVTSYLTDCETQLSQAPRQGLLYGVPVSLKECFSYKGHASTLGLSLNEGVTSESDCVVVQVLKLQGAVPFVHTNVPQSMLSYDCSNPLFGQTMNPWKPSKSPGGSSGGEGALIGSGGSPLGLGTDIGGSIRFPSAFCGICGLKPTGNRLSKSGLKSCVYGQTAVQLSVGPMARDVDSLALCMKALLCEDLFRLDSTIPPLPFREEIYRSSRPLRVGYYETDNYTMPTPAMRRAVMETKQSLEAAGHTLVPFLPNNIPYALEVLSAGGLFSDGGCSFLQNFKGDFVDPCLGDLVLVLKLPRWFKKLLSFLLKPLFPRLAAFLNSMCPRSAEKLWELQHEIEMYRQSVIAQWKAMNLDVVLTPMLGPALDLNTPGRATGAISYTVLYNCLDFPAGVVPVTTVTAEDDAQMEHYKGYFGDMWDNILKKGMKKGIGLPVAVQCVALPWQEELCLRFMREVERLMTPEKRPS
From the text: (§1) FIG. 25. In vivo Target Engagement. The mice were administrated with vehicle (PEG300) or NCEH1 inhibitor JW480 by oral gavage. Then the mPBMCs were acquired from the mouse blood and subjected to family wide probe treatment to profile the in vivo target engagement.
(§2) Following the in vitro study, in vivo target engagement was planned. In this experiment, the inventors orally gavaged the mice with vehicle or inhibitors, then collected the mPBMCs for probe treatment and sADPL measurement. Again, first the activity of NCEH1 was tested in mice PBMCs, and good activity was found. The delta Ct is over 7 cycles, which is over 100 fold change.

NCEH1 [1] = target: T2, NCEH1 (Homo sapiens, UniProt Q6PIU2); parameters: endogenous NCEH1 activity in SKOV3 cells; endogenous in cells; host or cells: SKOV3; wild-type PC3; PAFAH2-expressing PC3; settings: previously reported; PC3 cells; read-out: IC50 for NCEH1 previously reported by gel-based profiling; cited from earlier work
T2 sequence (Q6PIU2 1-408): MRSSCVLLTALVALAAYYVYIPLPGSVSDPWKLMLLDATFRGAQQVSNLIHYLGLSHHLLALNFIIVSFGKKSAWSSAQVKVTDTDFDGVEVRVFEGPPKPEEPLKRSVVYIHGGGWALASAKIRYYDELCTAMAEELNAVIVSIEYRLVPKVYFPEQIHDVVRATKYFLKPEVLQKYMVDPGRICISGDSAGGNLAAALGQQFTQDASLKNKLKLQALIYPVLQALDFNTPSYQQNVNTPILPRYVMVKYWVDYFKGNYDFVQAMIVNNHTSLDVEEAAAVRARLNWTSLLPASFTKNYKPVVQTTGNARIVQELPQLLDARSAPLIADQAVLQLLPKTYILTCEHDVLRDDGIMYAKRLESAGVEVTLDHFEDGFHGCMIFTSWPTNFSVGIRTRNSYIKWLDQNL

NCEH1 [2] = target: T3, NCEH1 (Mus musculus, UniProt Q8BLF1); experiment: sADPL in vivo target engagement in mPBMCs after oral gavage, NCEH1; settings: mice
T3 construct: Then the mPBMCs were acquired from the mouse blood and subjected to family wide probe treatment; from tissue; host or cells: mouse blood PBMCs (mPBMCs)
T3 sequence (Q8BLF1 1-408): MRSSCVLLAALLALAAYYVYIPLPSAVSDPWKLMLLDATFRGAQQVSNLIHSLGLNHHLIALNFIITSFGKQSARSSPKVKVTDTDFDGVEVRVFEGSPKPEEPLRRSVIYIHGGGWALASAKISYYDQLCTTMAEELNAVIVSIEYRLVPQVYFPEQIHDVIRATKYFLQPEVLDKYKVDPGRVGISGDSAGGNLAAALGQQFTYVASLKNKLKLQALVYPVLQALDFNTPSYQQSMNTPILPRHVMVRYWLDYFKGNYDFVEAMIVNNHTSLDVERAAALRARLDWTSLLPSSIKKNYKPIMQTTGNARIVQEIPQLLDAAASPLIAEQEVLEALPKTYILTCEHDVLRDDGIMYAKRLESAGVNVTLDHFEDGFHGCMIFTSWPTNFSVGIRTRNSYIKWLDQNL
From the text: as §1, §2

MGLL = target: T4, MGLL (Mus musculus, UniProt O35678); experiment: sADPL in vivo target engagement in mPBMCs after oral gavage, off-target MGLL; settings: mice, 3 and 80 mg/kg
T4 construct: Then the mPBMCs were acquired from the mouse blood and subjected to family wide probe treatment; from tissue; host or cells: mouse blood PBMCs (mPBMCs)
T4 sequence (O35678 1-303): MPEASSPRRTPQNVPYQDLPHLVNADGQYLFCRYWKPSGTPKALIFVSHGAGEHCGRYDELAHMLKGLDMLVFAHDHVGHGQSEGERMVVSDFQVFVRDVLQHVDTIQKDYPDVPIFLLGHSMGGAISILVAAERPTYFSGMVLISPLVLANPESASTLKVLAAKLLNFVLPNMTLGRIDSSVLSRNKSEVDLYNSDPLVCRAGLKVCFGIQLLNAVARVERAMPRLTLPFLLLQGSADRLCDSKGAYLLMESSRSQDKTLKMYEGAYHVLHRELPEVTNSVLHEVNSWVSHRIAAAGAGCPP
From the text: as §1, §2

NCEH1 [3] = target: T2, NCEH1; experiment: sADPL target engagement in patient-derived hPBMCs; format: cell-based; parameters: The human peripheral blood mononuclear cells (hPBMCs) were extracted from patient-derived blood samples; endogenous in cells; host or cells: primary human PBMCs from patient blood; settings: hPBMCs from patient-derived blood; inhibitor prior to family-wide probe
Description: FIG. 24. Target Engagement in Patient-derived PBMCs. The human peripheral blood mononuclear cells (hPBMCs) were extracted from patient-derived blood samples. Likewise, hPBMCs were treated with DMSO as the control, with inhibitor prior to family wide probe to pre-block the active site, or with family-wide probe directly. Then sADPL workflow was applied to read out the CT difference.

CC(C)c1ccccc1OC(=O)NCCc1ccc2ccccc2c1 [JW480]
in vivo target engagement of off-target FAAH in mPBMCs (FAAH): no target engagements were observed
IC50 (NCEH1 [1]): 12 nM
NCEH1 activity in mPBMCs (raw Ct values) (NCEH1 [2]; 3 mg/kg (partial inhibition) vs vehicle PEG300): lower activity
NCEH1 activity in mPBMCs (raw Ct values) (NCEH1 [2]; 80 mg/kg (complete inhibition) vs vehicle PEG300): even lower activity
in vivo target engagement of off-target MGLL in mPBMCs (MGLL): no target engagements were observed
activity in inhibitor competition group by sADPL in hPBMCs (NCEH1 [3]): bring the activities down to the levels of DMSO controls
